From the NIST ThermoML archive (doi:10.1016/j.jct.2013.03.015)
Numbers after ± are expanded uncertainties.

Assay: molar heat capacity at constant pressure; xn = mol fraction of the nth substance listed
Conditions: 101 kPa, Crystal, relaxation calorimetry - PPMS by Quantum Design

[Cl-].[K+] [potassium chloride] + [Cl-].[Na+]
Conditions	molar heat capacity at constant pressure [J/K/mol]
40.5 K, x2 = 0.2	15.06 ± 0.31
40.52 K, x2 = 0.1	15.25 ± 0.31
40.53 K, x2 = 0.9	10.98 ± 0.23
43.41 K, x2 = 0.2	16.89 ± 0.34
43.43 K, x2 = 0.1	17.11 ± 0.35
43.45 K, x2 = 0.9	12.63 ± 0.26
46.53 K, x2 = 0.2	18.81 ± 0.38
46.57 K, x2 = 0.1	19.04 ± 0.39
46.58 K, x2 = 0.9	14.4 ± 0.29
49.87 K, x2 = 0.2	20.73 ± 0.42
49.91 K, x2 = 0.1	21.01 ± 0.42
49.93 K, x2 = 0.9	16.28 ± 0.33
53.47 K, x2 = 0.2	22.73 ± 0.46
53.5 K, x2 = 0.1	23 ± 0.46
53.53 K, x2 = 0.9	18.23 ± 0.37
57.32 K, x2 = 0.2	24.73 ± 0.5
57.34 K, x2 = 0.1	25.02 ± 0.5
57.38 K, x2 = 0.9	20.25 ± 0.41
61.44 K, x2 = 0.2	26.7 ± 0.54
61.47 K, x2 = 0.1	26.98 ± 0.54
61.51 K, x2 = 0.9	22.26 ± 0.45
65.86 K, x2 = 0.2	28.67 ± 0.57
65.89 K, x2 = 0.1	28.95 ± 0.58
65.94 K, x2 = 0.9	24.31 ± 0.49
70.6 K, x2 = 0.2	30.6 ± 0.61
70.63 K, x2 = 0.1	30.88 ± 0.62
70.69 K, x2 = 0.9	26.32 ± 0.53
75.67 K, x2 = 0.2	32.39 ± 0.65
75.7 K, x2 = 0.1	32.61 ± 0.65
75.77 K, x2 = 0.9	28.27 ± 0.57
81.11 K, x2 = 0.2	34.17 ± 0.68
81.13 K, x2 = 0.1	34.4 ± 0.69
81.21 K, x2 = 0.9	30.13 ± 0.6
86.93 K, x2 = 0.2	35.85 ± 0.72
86.95 K, x2 = 0.1	36.07 ± 0.72
87.05 K, x2 = 0.9	32.29 ± 0.65
93.14 K, x2 = 0.1	37.49 ± 0.75
93.15 K, x2 = 0.2	37.32 ± 0.75
93.3 K, x2 = 0.9	34.01 ± 0.68
99.83 K, x2 = 0.1	39.05 ± 0.78
99.85 K, x2 = 0.2	38.84 ± 0.78
100.02 K, x2 = 0.9	35.79 ± 0.72
107.02 K, x2 = 0.1	40.33 ± 0.81
107.03 K, x2 = 0.2	40.15 ± 0.8
107.21 K, x2 = 0.9	37.38 ± 0.75
114.72 K, x2 = 0.1	41.63 ± 0.83
114.72 K, x2 = 0.2	41.45 ± 0.83
114.92 K, x2 = 0.9	38.92 ± 0.78
122.97 K, x2 = 0.1	42.71 ± 0.85
122.97 K, x2 = 0.2	42.57 ± 0.85
123.18 K, x2 = 0.9	40.27 ± 0.81
131.81 K, x2 = 0.1	43.7 ± 0.87
131.82 K, x2 = 0.2	43.53 ± 0.87
132.04 K, x2 = 0.9	41.45 ± 0.83
141.3 K, x2 = 0.1	44.69 ± 0.89
141.3 K, x2 = 0.2	44.51 ± 0.89
141.54 K, x2 = 0.9	42.61 ± 0.85
151.45 K, x2 = 0.2	45.39 ± 0.91
151.46 K, x2 = 0.1	45.56 ± 0.91
151.71 K, x2 = 0.9	43.67 ± 0.87
162.35 K, x2 = 0.2	46.18 ± 0.92
162.37 K, x2 = 0.1	46.3 ± 0.93
162.61 K, x2 = 0.9	44.81 ± 0.9
174.02 K, x2 = 0.2	46.93 ± 0.94
174.06 K, x2 = 0.1	47.07 ± 0.94
174.32 K, x2 = 0.9	45.52 ± 0.91
186.55 K, x2 = 0.2	47.5 ± 0.95
186.58 K, x2 = 0.1	47.69 ± 0.95
186.88 K, x2 = 0.9	46.21 ± 0.92
199.96 K, x2 = 0.2	48.19 ± 0.96
199.99 K, x2 = 0.1	48.31 ± 0.97
200.33 K, x2 = 0.9	47.11 ± 0.94
214.35 K, x2 = 0.2	48.72 ± 0.97
214.36 K, x2 = 0.1	48.85 ± 0.98
214.74 K, x2 = 0.9	47.78 ± 0.96
229.74 K, x2 = 0.2	49.19 ± 0.98
229.76 K, x2 = 0.1	49.26 ± 0.98
230.17 K, x2 = 0.9	48.37 ± 0.97
246.25 K, x2 = 0.2	49.8 ± 1
246.27 K, x2 = 0.1	49.83 ± 1
246.73 K, x2 = 0.9	49.07 ± 0.98
263.91 K, x2 = 0.2	50.18 ± 1
263.93 K, x2 = 0.1	50.3 ± 1
264.44 K, x2 = 0.9	49.55 ± 0.99
282.86 K, x2 = 0.2	50.68 ± 1
282.87 K, x2 = 0.1	50.88 ± 1
283.42 K, x2 = 0.9	50.22 ± 1
303.12 K, x2 = 0.2	51.21 ± 1
303.18 K, x2 = 0.1	51.27 ± 1
303.77 K, x2 = 0.9	50.61 ± 1
